Tested on: Plasmodium falciparum
Assay: GSK_TCMDC: Inhibition of Plasmodium falciparum 3D7 in whole erythrocytes, using parasite LDH activity as an index of growth.
Assay type: functional, organism-based
Settings: Plasmodium falciparum, 3D7

| Compound | XC50 [nM] |
| --- | --- |
| COc1ccc2nccc(N/N=C/c3cccc([N+](=O)[O-])c3)c2c1 | 398 |
| CNc1nc(N/N=C/c2cc3c(cc2[N+](=O)[O-])OCO3)nc(Nc2cccc(C(F)(F)F)c2)n1 | 771 |
| CN1CC=C(c2c[nH]c3ccc(OCc4ccccc4)cc23)CC1 | 718 |
| CCn1ncc2c(NC3CCOCC3)c(CNC(=O)c3ccnn3C)c(C)nc21 | 533 |
| COc1ccc(Oc2ccc(Nc3ccnc4ccc(C(F)(F)F)cc34)cc2)cc1OC | 1060 |
| COc1ccc2c(c1)CC1CN(CCCCNC(=O)c3ccc(NC(=O)c4cc(Cl)cc(Cl)c4)cc3)CCN1C2 (stereo unspecified) | 767 |
| COc1ccc2nccc([C@@H](O)CN3CCC(NC(=O)Cc4cccc5c(Br)cccc45)CC3)c2c1 | 796 |
| O[C@H]1[C@H](OCc2ccc(-c3ccccc3)cc2)CC[C@@H]1N1CCCCC1 | 1060 |
| CCOc1ccc2c(=NN=Cc3ccccc3OC)cc(C)[nH]c2c1 | 496 |
| O=C(/C=C/c1ccc(Cl)c(Cl)c1)NCCCCCN1CCC(NC(=O)Nc2ccc3c(c2)OCO3)CC1 | 713 |
| Cc1cc(NCCC(=O)NCc2cccc(F)c2)nc(NCCc2ccc(F)cc2)n1 | 1750 |
| CCn1cc(CN2C(=O)C(c3ccccc3)(c3ccccc3)N=C2N)cn1 | 820 |
| Cc1noc(C)c1-c1cccc(CNCc2ccc(-c3ccc(-c4nc5cccc(C)c5[nH]4)cc3)cc2)c1 | 239 |
| O=C(CCCCCNC(=O)c1ccc(O)c(-c2ccc(Cl)c(Cl)c2)c1)NCc1cccc(C(F)(F)F)c1 | 731 |
| COc1ccc2[nH]c(C)cc(=NN=Cc3cc(C)ccc3O)c2c1 | 143 |
| COc1cc(OC)cc(-c2nnc(Sc3ccc(C#N)c([N+](=O)[O-])c3)n2C)c1 | 937 |
| Cc1cccc(OC(C)C(=O)Nc2cc(C(F)(F)F)ccc2N2CCOCC2)c1 (stereo unspecified) | 237 |
| COc1ccc(CCNC(=O)c2ccc(-n3cc(NC(=O)c4cccnc4)cn3)cc2)cc1OC | 1070 |
| COc1ccc(CNCc2cccc(-c3cccc(-c4nc5ccccc5[nH]4)c3)c2)cc1 | 368 |
| Cc1cccc(NC(=O)c2ccc(C(=O)NC3CCN(CC4CCCCC4)CC3)cc2)c1 | 805 |
| CCOc1ccc(NC(=O)c2cccc(CN3CCCN(Cc4cccc(O)c4)CC3)c2)cc1 | 1080 |
| COc1ccc(NC(C)C(=O)Nc2ccc(Br)cc2)cc1S(=O)(=O)N1CCCCC1 (stereo unspecified) | 221 |
| CS(=O)(=O)c1ccc(CNCc2ccc(-c3ccc(-c4nc5cc(F)ccc5[nH]4)s3)cc2)cc1 | 268 |
| O=C(Nc1ccc(OCc2ccccc2)cc1)c1nc2ccccc2nc1Cl | 254 |

| Compound | XC50 [nM] |
| --- | --- |
| c1ccc(C2=NN=C(c3ccccn3)C3C4CC(C23)C2C3CC(c5ccccc53)C42)nc1 (stereo unspecified) | 853 |
| O=C(Cc1cccc(OCCCN(Cc2cccc(C(F)(F)F)c2Cl)CC(c2ccccc2)c2ccccc2)c1)NCc1ccco1 | 937 |
| COc1cc(NC(=O)N2CCOC(CCN3CCC4(CCc5ccccc54)CC3)(c3ccc(Cl)c(Cl)c3)C2)cc(OC)c1OC (stereo unspecified) | 156 |
| Cc1nc2nc(N)nc(N)c2c(C)c1Cc1ccccc1Cl | 112 |
| CC(C)CNCc1ccc(-c2ccc(CN(C(=O)NCCc3ccccc3)C3CCN(Cc4ccccc4)CC3)cc2)cc1 | 699 |
| CC(C)(C(=O)NCCC1CCN(CCCCCNC(=O)/C=C/c2ccc(Cl)c(Cl)c2)CC1)c1ccc(Cl)cc1 | 1280 |
| CN(C)c1ccc(-c2csc(C(=O)NC3CCCCN(CCC(C)(C)C)C3)c2)cc1 (stereo unspecified) | 1050 |
| CC[C@H](C)CNC(=O)c1ccnc(-c2ccc(CN3CCC(N4CCCC4)CC3)cc2)c1 | 891 |
| CCc1ccc(-c2nc3cc(NC(=O)c4ccc([N+](=O)[O-])o4)ccc3o2)cc1 | 250 |
| CCNc1cc(C(=O)N[C@@H](Cc2ccccc2)[C@H](O)CNC(C)C)cc(N2CC(c3ccccc3)CCS2(=O)=O)c1 (stereo partly specified) | 412 |
| Cc1ccc(Nc2nnc(SCC(=O)Nc3ccc(CN4CCCC4)cc3)s2)cc1 | 1210 |
| N[C@@H](Cc1cc(I)c(Oc2ccc(O)c(C(=O)O)c2)c(I)c1)C(=O)O | 991 |
| CN(C)Cc1cccc(-c2ccc(NC(=O)c3ccc4c(=O)n(CCN5CCCCC5)cnc4c3)cc2)c1 | 650 |
| O=C(NCCc1cccc(F)c1)c1cc(Br)cc(N2CCN(c3ccncc3)CC2)c1 | 764 |
| O=C(CCn1c2ccccc2c2ccccc21)NN=Cc1ccco1 | 588 |
| Ic1cc(CNC2CCCCC2)ccc1OCc1cccc(COc2ccc(CNC3CCCCC3)cc2I)c1 | 829 |
| CC(Cc1ccc(NC(=O)c2ccc(CC(C)NCc3ccc(Cl)c(Cl)c3)cc2)cc1)NCCc1cccc(Cl)c1 (stereo unspecified) | 1000 |
| CC(=O)N1CCC(C(=O)Nc2ccc(-c3cccc(-c4nc5cc(C(F)(F)F)ccc5[nH]4)c3)cc2)CC1 | 239 |
| CN(c1ncc(-c2cccc(CNCc3ccccc3O)c2)cn1)C1CCCCC1 | 822 |
| CC(=O)Oc1cc(OCc2ccccc2)c(OC(C)=O)c(OCc2ccccc2)c1 | 407 |
| CC(C)CNCc1cccc(-c2cccc(CNc3ccc4ncccc4c3)c2)c1 | 947 |
| CNCc1cccc2nc(-c3ccc(Cc4cc(Cl)ccc4OCC(C)C)o3)[nH]c12 | 895 |
| Cc1cc(NCc2ccccc2)nc(NCc2ccccc2)n1 | 974 |
| COc1ccc(-c2ccc(CNCc3ccccc3)cc2)cc1S(=O)(=O)NCCN1CCCC1 | 726 |

| Compound | XC50 [nM] |
| --- | --- |
| CC(C)(C)OC(=O)NCc1ccc(Nc2nnc(-c3cccc(OCC(=O)NCc4cc(C(F)(F)F)cc(C(F)(F)F)c4)c3)o2)cc1 | 832 |
| CC[C@H]1CN2CC[C@@H]1C[C@H]2[C@H](O)c1cc(-c2ccc(Cl)c(Cl)c2)nc2ccc(O)cc12 | 262 |
| CCOC(=O)c1c(C)n(-c2ccccc2)c2ccc(O)cc12 | 475 |
| Cc1nnsc1C(=O)Nc1ccc(-c2cccc(-c3nc4cc(C(F)(F)F)ccc4[nH]3)c2)cc1 | 838 |
| Nc1nc(N)c(-c2ccccc2)c(=O)[nH]1 | 1000 |
| CNc1ccc(CNCc2cccc(-c3ccc(-c4nc5ccccc5[nH]4)s3)c2)cc1 | 734 |
| O=C(/C=C/c1ccc(Cl)c(Cl)c1)NCCCCCCN1CCN(C(=O)Nc2ccc(F)c(Cl)c2)CC1 | 938 |
| Cc1cccc2nc(-c3ccc(-c4ccc(CN5CC(C)OC(C)C5)cc4)cc3)[nH]c12 (stereo unspecified) | 523 |
| COc1ccc(NC(=O)Nc2ccc(-c3cccc(-c4nc5cccc(C)c5[nH]4)c3)cc2)cc1 | 142 |
| O=C(NC1CCN(Cc2ccc(Cl)cc2)CC1)c1cn(-c2ccccc2)nc1-c1cccnc1 | 972 |
| Cc1ccc(C(C#N)c2ccc3c(C(F)(F)F)cc(C(F)(F)F)nc3n2)cc1 (stereo unspecified) | 700 |
| N=C(N)c1ccc(OCc2cccc(COc3ccc(C(=N)N)cc3I)c2)c(I)c1 | 337 |
| COc1ccc2nccc([C@@H](O)CN3CCC(NCCNc4ccccn4)CC3)c2c1 | 741 |
| COc1cc(C(=O)N2CCOC(CCN3CCC4c5ccccc5CC43)(c3ccc(Cl)c(Cl)c3)C2)cc(OC)c1OC (stereo unspecified) | 529 |
| COc1cc2nc(N3CCC(CNC(=O)c4ccc(-c5ccc(C#N)cc5)cc4)CC3)nc(N)c2cc1OC | 796 |
| CN(C)CCNC(=O)NC1CN(c2ncnc3cc(-c4ccccc4)sc23)C1 | 585 |
| O=C(NCCCCN1CCN(CC=Cc2ccccc2)CC1)c1ccc(NC(=O)c2cc(Cl)cc(Cl)c2)cc1 | 208 |
| COc1cc(Cc2cnc(N)nc2N)cc(OCCCCC2SC(=O)NC2=O)c1OC (stereo unspecified) | 30.7 |
| COc1cc2c(cc1OC)C(c1ccc(Br)cc1)CN(C)CC2 (stereo unspecified) | 943 |
| CC(=O)N(C)c1ccc(C(=O)Nc2cccc(-c3cccc(-c4nc5cccc(C)c5[nH]4)c3)c2)cc1 | 620 |
| CC(=O)Nc1ncc(C(=O)Nc2cccc(-c3cccc(-c4nc5cc(F)ccc5[nH]4)c3)c2)s1 | 454 |
| Cc1[nH]c2ccccc2c1C1=CCN(CCCCC2(C)C(=O)Nc3ccccc32)CC1 (stereo unspecified) | 232 |
| Nc1ncc(-c2ccc(F)c(Cl)c2)c(N)n1 | 1230 |
| COCCn1c(-c2cccc(Cl)c2)nn(-c2ccc([N+](=O)[O-])cc2Cl)c1=S | 737 |

| Compound | XC50 [nM] |
| --- | --- |
| COC(=O)c1cccc(CNCc2cccc(-c3ccc(-c4nc5cc(C(F)(F)F)ccc5[nH]4)cc3)c2)c1 | 257 |
| Cc1ccc([S+]([O-])Cc2ccc(Cl)cc2)cc1 (stereo unspecified) | 196 |
| NCCNc1ccc([N+](=O)[O-])cc1C(=O)Nc1cccc(C(F)(F)F)c1 | 905 |
| CC(=O)N(Cc1cccc(-c2cccc(CNCc3ccc4c(c3)OCO4)c2)c1)C1CCN(Cc2ccccc2)CC1 | 839 |
| COc1ccc(NS(=O)(=O)c2cccc(C(=O)Nc3ccc(C(F)(F)F)cc3)c2)cc1N1CCN(CC(C)C)CC1 | 838 |
| CC(CNC(=O)c1cc2c(Cl)cc(Cl)cc2[nH]1)CNc1cc(=O)c2ccccc2[nH]1 (stereo unspecified) | 715 |
| OC(COCc1ccc(-c2ccccc2)cc1)CN1CCCCC1 (stereo unspecified) | 269 |
| CCNc1cc(C(=O)N[C@@H](Cc2cccc(Cl)c2)[C@H](O)CNC(C)CCCC(C)C)cc(N2CCCCS2(=O)=O)c1 (stereo partly specified) | 285 |
| Cc1ccc(F)c(CN2CCC(N3CC(c4ccccc4)(c4ccccc4)OC3=O)CC2)c1Cl | 593 |
| Cc1noc(C)c1CN1Cc2ccccc2OC2(CCN(Cc3c[nH]c4cnccc34)CC2)C1 | 1070 |
| Nc1nccc2ccc(-c3ccc(Oc4ccccc4)cc3)cc12 | 278 |
| CC(C)(C)c1cc(CN2CCN(Cc3ccccc3)CC2)cc(C(C)(C)C)c1O | 771 |
| O=C(Nc1cccc(-c2cccc(-c3nc4ccccc4[nH]3)c2)c1)Nc1ccc(Cl)c(Cl)c1 | 131 |
| CC(C)(C)c1cc(C(=O)N2CCN(c3cnccn3)CC2)n(Cc2ccccc2)n1 | 1140 |
| CN1C(=O)C(=O)N(CCCCCONC(=N)N)C1=S | 197 |
| CCOC(=O)c1ccc(NC(=O)NC2CCN(CCCCCNC(=O)/C=C/c3ccc(Cl)c(Cl)c3)C2)cc1 (stereo unspecified) | 487 |
| CC(C)c1ccc(NC(=O)c2cccc(CN3CCCN(Cc4cccc(C#N)c4)CC3)c2)cc1 | 948 |
| COc1ccc(NC(=O)c2c(NC(=O)c3cccs3)sc3c2CCCC3)cc1 | 448 |
| COc1ccc2nccc([C@@H](O)CN3CCC(NCC(=O)Nc4cc(F)cc(F)c4)CC3)c2n1 | 912 |
| Cc1nc2ccc(NC(=O)Nc3ccnc4ccc(C(F)(F)F)cc34)cc2o1 | 912 |
| COc1cc(NCCCCNc2ccc(Cl)c(Cl)c2)nc2ccccc12 | 527 |
| O=C(/C=C/c1ccc(Cl)c(Cl)c1)NCCCCCN1CCC(CCNC(=O)C2(c3ccc(Cl)cc3)CC2)CC1 | 925 |
| Cn1cncc1C(=O)Nc1cccc(-c2ccc(-c3nc4cc(F)ccc4[nH]3)s2)c1 | 872 |
| CCOc1ccc(-c2nonc2NC(=O)c2ccccc2Cl)cc1OCC | 742 |
